Laboratory results taken from PubChem BioAssay AID208 (DTP/NCI, 2004).
Where “and” joins values, the source holds several entries; their conditions need not be identical. Equal entries are not always repeated. Records with an inconclusive call do not appear.

System: HT29 intrarenal xenograft, nude mice, tumor weight change
Assay: NCI In Vivo Anticancer Drug Screen. Data for tumor model HT29;CX-1 Human Adenocarcinoma (MER+) (intrarenal inoculation) in NU/NU BALB/C (nude) mice
Settings: endpoint: mean tumor weight change, higher = larger tumour
Description: The antitumor activity of compounds was measured in mice bearing transplantable tumors. Survival or tumor size were measured and the results are expressed as the measurement made in the treated group (T) divided by the measurement made in the vehicle treated control group (C). The tumor model used in this assay is HT29;CX-1 Human Adenocarcinoma (MER+) (intrarenal inoculation) in NU/NU BALB/C (nude) mice

[1] = dose: 200.0 mg/kg/injection, schedule: Q04DX004 (sc), vehicle: saline with Tween-80
[2] = dose: 400.0 mg/kg/injection, schedule: Q04DX004 (sc), vehicle: saline with Tween-80
[3] = dose: 3.0 mg/kg/injection, schedule: Q04DX004 (sc), vehicle: saline with Tween-80
[4] = dose: 6.0 mg/kg/injection, schedule: Q04DX004 (sc), vehicle: saline with Tween-80
[5] = dose: 600.0 mg/kg/injection, schedule: Q04DX004 (sc), vehicle: saline with Tween-80
[6] = dose: 2400.0 mg/kg/injection, schedule: Q04DX004 (sc), vehicle: saline with Tween-80
[7] = dose: 150.0 mg/kg/injection, schedule: Q04DX004 (sc), vehicle: saline with Tween-80
[8] = dose: 300.0 mg/kg/injection, schedule: Q04DX004 (sc), vehicle: saline with Tween-80
[9] = dose: 1200.0 mg/kg/injection, schedule: Q04DX004 (sc), vehicle: saline with Tween-80
[10] = dose: 150.0 mg/kg/injection, schedule: Q04DX004 (sc), vehicle: saline
[11] = dose: 300.0 mg/kg/injection, schedule: Q04DX004 (sc), vehicle: saline
[12] = dose: 600.0 mg/kg/injection, schedule: Q04DX004 (sc), vehicle: saline

Nc1nc(=O)n(C2OC(CO)C(O)C2O)cc1F (configuration not stated)
T/C (dose: 300.0 mg/kg/injection, schedule: Q04DX004 (ip), vehicle: saline): 66 % of control
T/C (dose: 600.0 mg/kg/injection, schedule: Q04DX004 (ip), vehicle: saline): 64 % of control
T/C (dose: 900.0 mg/kg/injection, schedule: Q04DX004 (ip), vehicle: saline): 53 % of control
T/C (dose: 1200.0 mg/kg/injection, schedule: Q04DX004 (ip), vehicle: saline): 88 % of control

Nc1nnc[se]1
T/C [1]: 64 % of control
T/C [2]: 31 % of control
T/C (dose: 800.0 mg/kg/injection, schedule: Q04DX004 (sc), vehicle: saline with Tween-80): 23 % of control

Oc1cccc2ccccc12
T/C (dose: 150.0 mg/kg/injection, schedule: Q04DX004 (ip), vehicle: water): 63 % of control

C/C(=N\NC(=S)N1CCN(c2ccccn2)CC1)c1ccccn1
T/C (dose: 50.0 mg/kg/injection, schedule: Q04DX004 (sc), vehicle: water): 158 % of control

O=c1c(O)c(-c2cc(O)c(O)c(O)c2)oc2cc(O)cc(O)c12
T/C (dose: 1.5 mg/kg/injection, schedule: Q04DX004 (sc), vehicle: saline with Tween-80): 105 % of control
T/C [3]: 114 % of control
T/C [4]: 107 % of control
T/C (dose: 12.0 mg/kg/injection, schedule: Q04DX004 (sc), vehicle: saline with Tween-80): 106 % of control
T/C (dose: 50.0 mg/kg/injection, schedule: Q04DX004 (sc), vehicle: saline with Tween-80): 63 % of control
T/C (dose: 100.0 mg/kg/injection, schedule: Q04DX004 (sc), vehicle: saline with Tween-80): 73 % of control
T/C [1]: 77 % of control
T/C [2]: 103 % of control

Nc1ccn([C@@H](C=O)O[C@@H](C=O)CO)c(=O)n1
T/C (dose: 50.0 mg/kg/injection, schedule: Q04DX004 (sc), vehicle: saline): 117 % of control
T/C (dose: 100.0 mg/kg/injection, schedule: Q04DX004 (sc), vehicle: saline): 71 % of control
T/C (dose: 200.0 mg/kg/injection, schedule: Q04DX004 (sc), vehicle: saline): 113 % of control

[Cl][Hg][Cl]
T/C (dose: 2.5 mg/kg/injection, schedule: Q04DX004 (ip), vehicle: saline): 155 % of control
T/C (dose: 5.0 mg/kg/injection, schedule: Q04DX004 (ip), vehicle: saline): 68 % of control

CC1=C/C(O)CC(=O)Cc2nc(co2)C(=O)N2CCC=C2C(=O)OC(C(C)C)C(C)/C=C\C(=O)NC/C=C\1 (configuration not stated)
T/C (dose: 150.0 mg/kg/injection, schedule: Q04DX004 (sc), vehicle: Klucel (hydroxypropylcellulose) (HPC)): 66 % of control
T/C (dose: 300.0 mg/kg/injection, schedule: Q04DX004 (sc), vehicle: Klucel (hydroxypropylcellulose) (HPC)): 92 % of control
T/C (dose: 600.0 mg/kg/injection, schedule: Q04DX004 (sc), vehicle: Klucel (hydroxypropylcellulose) (HPC)): 54 % of control
T/C (dose: 1200.0 mg/kg/injection, schedule: Q04DX004 (sc), vehicle: Klucel (hydroxypropylcellulose) (HPC)): 85 % of control

Cc1cc2cc3cc(C)c(N)cc3nc2cc1N
T/C [5]: 115 % of control
T/C [6]: 77 % of control

CC[C@@]1(O)C(=O)OCc2c1cc1n(c2=O)Cc2cc3ccccc3nc2-1
T/C (dose: 0.75 mg/kg/injection, schedule: Q04DX004 (sc), vehicle: saline with Tween-80): 75 % of control
T/C [3]: 49 % of control
T/C [4]: 48 % of control
T/C (dose: 32.0 mg/kg/injection, schedule: Q04DX004 (sc), vehicle: saline with Tween-80): 8 % of control

Nc1ccc(S(=O)(=O)Nc2cnc3c(Cl)cccc3n2)cc1
T/C (dose: 300.0 mg/kg/injection, schedule: Q04DX004 (ip), vehicle: DMSO): 85 % of control

O=C1c2ccccc2C(=O)c2c1cn1c2Cc2ccccc2C1
T/C (dose: 37.5 mg/kg/injection, schedule: Q04DX004 (ip), vehicle: Klucel (hydroxypropylcellulose) (HPC)): 908 % of control
T/C (dose: 75.0 mg/kg/injection, schedule: Q04DX004 (ip), vehicle: Klucel (hydroxypropylcellulose) (HPC)): 537 % of control
T/C (dose: 150.0 mg/kg/injection, schedule: Q04DX004 (ip), vehicle: Klucel (hydroxypropylcellulose) (HPC)): 753 % of control
T/C (dose: 300.0 mg/kg/injection, schedule: Q04DX004 (ip), vehicle: Klucel (hydroxypropylcellulose) (HPC)): 188 % of control
T/C (dose: 600.0 mg/kg/injection, schedule: Q04DX004 (ip), vehicle: Klucel (hydroxypropylcellulose) (HPC)): 450 % of control

CCNC(C)(C)C(SSS)c1ccco1 (configuration not stated)
T/C (dose: 75.0 mg/kg/injection, schedule: Q04DX004 (sc), vehicle: saline with Tween-80): 121 % of control
T/C [7]: 119 % of control
T/C [8]: 91 % of control

O=C(NC1CCCCC1)OCc1c(COC(=O)NC2CCCCC2)c(-c2ccc(Cl)c(Cl)c2)n2c1CCC2
T/C [7]: 67 % of control
T/C [8]: 60 % of control
T/C [5]: 54 % of control
T/C [9]: 65 % of control

O=P(O)(NCCCl)NCCCl
T/C (dose: 37.5 mg/kg/injection, schedule: Q04DX004 (sc), vehicle: saline): 54 % of control and 61 % of control
T/C (dose: 75.0 mg/kg/injection, schedule: Q04DX004 (sc), vehicle: saline): 71 % of control and 80 % of control

CC(C)C(N)C(=O)Nc1nncs1 (configuration not stated)
T/C [10]: 94 % of control
T/C [11]: 74 % of control
T/C [12]: 68 % of control

CC(=O)Oc1[nH]c(=O)c2cccc3c2c1CCC3
T/C [7]: 207 % of control
T/C [8]: 105 % of control

CN(C)N=Nc1ccc(S(N)(=O)=O)cc1
T/C (dose: 100.0 mg/kg/injection, schedule: Q01DX010 (sc), vehicle: Klucel (hydroxypropylcellulose) (HPC)): 81 % of control
T/C (dose: 200.0 mg/kg/injection, schedule: Q01DX010 (sc), vehicle: Klucel (hydroxypropylcellulose) (HPC)): 104 % of control

C[CH2][Sn]([CH2]C)([O]S(C)(=O)=O)[O]S(C)(=O)=O
T/C (dose: 6.25 mg/kg/injection, schedule: Q04DX004 (sc), vehicle: saline with Tween-80): 169 % of control
T/C (dose: 12.5 mg/kg/injection, schedule: Q04DX004 (sc), vehicle: saline with Tween-80): 107 % of control

Cc1c(N)nc(C(CC(N)=O)NCC(N)C(N)=O)nc1C(=O)NC(C(=O)NC(C)C(O)C(C)C(=O)NC(C(=O)NCCc1nc(-c2nc(C(=O)NCCCNC(C)c3ccccc3)cs2)cs1)C(C)O)C(OC1OC(CO)C(O)C(O)C1OC1OC(CO)C(O)C(OC(N)=O)C1O)c1cnc[nH]1 (configuration not stated)
T/C (dose: 4.0 mg/kg/injection, schedule: Q01DX010 (sc), vehicle: saline): 11 % of control
T/C (dose: 16.0 mg/kg/injection, schedule: Q01DX010 (sc), vehicle: saline): 25 % of control

COc1ccc2c(NCCCCCCCCNc3c4ccccc4nc4cc(OC)ccc34)c3ccccc3nc2c1
T/C (dose: 31.25 mg/kg/injection, schedule: Q04DX004 (sc), vehicle: suspension in saline): 65 % of control
T/C (dose: 62.5 mg/kg/injection, schedule: Q04DX004 (sc), vehicle: suspension in saline): 72 % of control
T/C (dose: 125.0 mg/kg/injection, schedule: Q04DX004 (sc), vehicle: suspension in saline): 47 % of control
T/C (dose: 250.0 mg/kg/injection, schedule: Q04DX004 (sc), vehicle: suspension in saline): 73 % of control

Cc1cnc(/C=N\NC(N)=S)c2cccc(N)c12
T/C (dose: 125.0 mg/kg/injection, schedule: Q04DX004 (ip), vehicle: saline with Tween-80): 92 % of control

OCC1OC(n2cnc3c(=S)nc[nH]c32)C(O)C1O (configuration not stated)
T/C [10]: 91 % of control
T/C [11]: 173 % of control
T/C [12]: 103 % of control

C[C@H]1C[C@@H]2[C@H]([C@@H](O)C[C@@]3(C)[C@H]2CC[C@]3(O)C(=O)CO)[C@@]2(C)C=CC(=O)C=C12
T/C (dose: 200.0 mg/kg/injection, schedule: Q04DX004 (sc), vehicle: Klucel (hydroxypropylcellulose) (HPC)): 14 % of control
T/C (dose: 400.0 mg/kg/injection, schedule: Q04DX004 (sc), vehicle: Klucel (hydroxypropylcellulose) (HPC)): 19 % of control
T/C (dose: 800.0 mg/kg/injection, schedule: Q04DX004 (sc), vehicle: Klucel (hydroxypropylcellulose) (HPC)): 29 % of control

NC(=O)CCC(N)C(=O)O (configuration not stated)
T/C (dose: 75.0 mg/kg/injection, schedule: Q04DX004 (ip), vehicle: suspension in saline): 101 % of control
T/C (dose: 150.0 mg/kg/injection, schedule: Q04DX004 (ip), vehicle: suspension in saline): 70 % of control
T/C (dose: 600.0 mg/kg/injection, schedule: Q04DX004 (ip), vehicle: suspension in saline): 95 % of control
T/C (dose: 1200.0 mg/kg/injection, schedule: Q04DX004 (ip), vehicle: suspension in saline): 107 % of control

CN(C)CCOc1ccc2c(c1)C/C(=C/c1ncc([N+](=O)[O-])n1C)C2=O
T/C [8]: 89 % of control
T/C [5]: 33 % of control
T/C [9]: 69 % of control
T/C [6]: 65 % of control
